SMILES strings stand for the structures.

The test system of assay [1] is human T-ALL cell line CCRF-CEM. Put plainly: CD47, PD-L1 and MYC expression in CCRF-CEM cells after MYC inhibition. In kind it is cell-based. As for the experimental part: (§1) Hematopoietic tumor cell lines (MYC T-ALL 4188 cells derived from the transgenic mouse model, human P493-6, human T-ALL Jurkat, and human T-ALL CCRF-CEM) were grown in RPMI 1640 supplemented with 10% FBS, 1% penicillin/streptomycin, 50 μM 2-mercaptoethanol at 37° C. in 5% CO2. Solid human tumor cell lines (H1299, SKMEL28), mouse MYC HCC, and human HEPG2 were grown in DMEM supplemented with 10% FBS and 1% penicillin/streptomycin at 37° C. in 5% CO2. To turn off expression of the MYC transgene, cells were treated with 20 ng/mL Dox. Primary human T-ALL cells were obtained from four deidentified patient samples and were cultured as previously described (Bruserud et al. 2003). Briefly, cells were cultured in StemSpan H3000 (StemCell) supplemented with human stem cell factor (50 ng/ml), human IL-7 (20 ng/ml), human IL-3 (20 ng/ml), and human FLT3 ligand (20 ng/ml) (Peprotech). Human cell lines were purchased from ATCC. […]
(§2) All tissues and cells were flash-frozen in liquid nitrogen and stored at −80° C. until RNA preparation. […] Data was analyzed using the cycle threshold method (normalized to UBC). […]
(§3) Tissues were manually dissociated between microscope slides and strained to remove debris. […] Labeled cells were analyzed on a FACSCalibur (Becton Dickinson), and data was analyzed using FlowJo (Treestar). […]
(§4) FIG. 1A: Flow cytometry median fluorescence intensity (MFI) was used to determine the relative cell surface expression of CD47, PD-L1, and other immune proteins following MYC inactivation in MYC T-ALL 4188 cells in vitro (n=3). FIG. 1B: Tumors were harvested from primary MYC-driven lymphomas 0 or 4 days following MYC inactivation. mRNA and protein levels were quantified by qPCR and flow cytometry MFI (n=3 tumors per condition). […] FIG. 1C: CD47 and PD-L1 protein levels in Jurkat and CCRF-CEM cells were quantified by flow cytometry MFI following MYC inhibition by conditional shRNA knockdown or 10 μM JQ1 treatment (n=3 biological replicates). […]

Assay [2] concerns human T-ALL cell line Jurkat. The experiment in a line: CD47, PD-L1 and MYC expression in Jurkat cells after MYC inhibition. In kind it is cell-based. As for the experimental part: as §1, §2, §3, §4
The subject of assay [3] is human melanoma cell line SKMEL28. The experiment in a line: CD47 and PD-L1 mRNA and protein in SKMEL28 cells after MYC inactivation. Type of assay: cell-based. To be noted: 48 hours, 10 μM JQ1 or MYC shRNA knockdown. On the procedure: (§5) Hematopoietic tumor cell lines (MYC T-ALL 4188 cells derived from the transgenic mouse model, human P493-6, human T-ALL Jurkat, and human T-ALL CCRF-CEM) were grown in RPMI 1640 supplemented with 10% FBS, 1% penicillin/streptomycin, 50 μM 2-mercaptoethanol at 37° C. in 5% CO2. Solid human tumor cell lines (H1299, SKMEL28), mouse MYC HCC, and human HEPG2 were grown in DMEM supplemented with 10% FBS and 1% penicillin/streptomycin at 37° C. in 5% CO2. To turn off expression of the MYC transgene, cells were treated with 20 ng/mL Dox. Primary human T-ALL cells were obtained from four deidentified patient samples and were cultured as previously described (Bruserud et al. 2003). Briefly, cells were cultured in StemSpan H3000 (StemCell) supplemented with human stem cell factor (50 ng/ml), human IL-7 (20 ng/ml), human IL-3 (20 ng/ml), and human FLT3 ligand (20 ng/ml) (Peprotech). Human cell lines were purchased from ATCC.
(§6) shRNA-mediated knockdowns were performed with the pLKO.1 lentiviral vector containing either control, CD47, or PD-L1-specific shRNA. shRNA-mediated knockdown of human MYC was performed with the pLKO.1 lentiviral vector containing a scrambled control or MYC shRNA (Sigma). PD-L1 shRNA on a pLKO.1-puro backbone was purchased from Sigma and CD47 shRNA (Sigma) was cloned into a pLKO.1-Hygro backbone (Addgene). The plasmids were transfected into packaging cells and virus-containing medium supernatants were used to infect tumor cells using polybrene methodology. For conditional knockdowns, stable cell lines were generated and the time course following MYC inactivation with 20 ng/mL Dox is indicated. For stable knockdowns, the time course is indicated as the time post-viral infection.
(§7) All tissues and cells were flash-frozen in liquid nitrogen and stored at −80° C. until RNA preparation. RNA was isolated using the TRIzol Reagent (Invitrogen) according to manufacturer instructions. cDNA was synthesized using SuperScriptIII (ThermoFisher). qPCR was performed using specific primers (Table 51) and the SYBR Green qPCR Kit (Roche) in an Applied Biosystems Real-Time PCR System (Life Technologies) with QuantStudio12K Flex Software. Data was analyzed using the cycle threshold method (normalized to UBC). A minimum of 3 biological and 3 technical replicates were used for all qPCR experiments.
as §3
(§8) FIG. 2A and FIG. 2B: The mRNA and protein levels of MYC, CD47, and PD-L1 in human melanoma SKMEL28 and human NSCLC H1299 cells were determined by qPCR and flow cytometry MFI, respectively, 48 hours after MYC inactivation in vitro. […]

The test system of assay [4] is human non-small cell lung cancer (NSCLC) cell line H1299. Put plainly: CD47 and PD-L1 mRNA and protein in H1299 cells after MYC inactivation. In kind it is cell-based. The conditions noted are these: 48 hours, 10 μM JQ1 or MYC shRNA knockdown. As for the experimental part:
as §5, §6, §7, §3, §8

Assay [5] deals with primary human T-ALL cells. The experiment in a line: CD47, PD-L1, CD8 and MYC expression in primary human T-ALL samples. In kind it is cell-based. To be noted: 48 h; for CD8 expression / CD47 cell surface expression / PD-L1 cell surface expression: four primary human T-ALL samples, flow cytometry MFI, 10 μM JQ1, 10 μM cisplatin or shRNA. On the procedure: as §5, §6, §7
(§9) Tissues were manually dissociated between microscope slides and strained to remove debris. Lysis buffer (0.15 M NH4Cl, 10 mM KHCO3, 0.1 mM EDTA pH 7.3) was used to remove red blood cells. Cells were washed and resuspended in cold flow cytometry buffer (1% FBS, 0.1% sodium azide in PBS). Staining was performed according to manufacturer instructions with the indicated antibodies (eBioscience). Labeled cells were analyzed on a FACSCalibur (Becton Dickinson), and data was analyzed using FlowJo (Treestar). Each plot is representative of three or more animals. Annexin-V and 7-AAD were used according to manufacturer's protocol (eBioscience).
FIG. 6A-6B: MYC mRNA levels before and after treatment with shRNA against MYC or treatment with JQ1. MYC mRNA was measured by qPCR in human T-ALL cell lines (A, n=3) and primary human T-ALL (B, n=4) cells following MYC inhibition by shRNA or JQ1 treatment after the indicated number of hours (0-48 h for human T-ALL cell lines, 48 h for primary T-ALL).
FIG. 9A: CD47 and PD-L1 protein levels in primary human T-ALL tumor samples were quantified by flow cytometry, following 48 h treatment with control scramble shRNA or MYC-targeting shRNA. FIG. 9B: CD47, PD-L1, or CD8 protein levels in primary human T-ALL tumor samples were quantified by flow cytometry MFI, following 48 h treatment with control scramble shRNA or MYC-targeting shRNA, or treatment with 10 μM JQ1 or 10 μM cisplatin (n=4 distinct patient samples). Means±SEM are shown.

For another assay, the system named is MYC T-ALL 4188 cells. Put plainly: Chemotherapeutic drug treatment of MYC T-ALL cells, surface protein levels by flow cytometry. Type of assay: cell-based, mouse. To be noted: for CD3 expression / CD8 expression / CD25 expression / CD69 expression / CD47 expression / PD-L1 expression: MYC T-ALL 4188 cells, 10 μM; for CD3 expression / CD8 expression / CD25 expression / CD69 expression: flow cytometry; for CD47 expression / PD-L1 expression: flow cytometry MFI; for tumor cell death: MYC T-ALL cells, 10 μM each. As for the experimental part:
as §5, §9
FIG. 7A: CD47 and PD-L1 protein levels in MYC T-ALL 4188 cells treated with prednisone, cytoxan, cisplatin, or vincristine (10 μM each) were quantified by flow cytometry MFI. Means±SEM are shown, n=3. FIG. 7B-7E: CD3, CD8, CD25, and CD69 protein levels in MYC T-ALL 4188 cells treated as in FIG. 7A were quantified by flow cytometry. Means±SEM are shown (n=3).

The subject of assay [6] is cells derived from mouse MYC-driven HCC. Put plainly: CD47 and PD-L1 protein levels in mouse MYC-driven HCC cells after chemotherapy treatment. Type of assay: cell-based. To be noted: flow cytometry MFI. As for the experimental part:
as §1, with “2003).” for “2003). Briefly, cells were cultured in StemSpan H3000 (StemCell) supplemented with human stem cell factor (50 ng/ml), human IL-7 (20 ng/ml), human IL-3 (20 ng/ml), and human FLT3 ligand (20 ng/ml) (Peprotech). Human cell lines were purchased from ATCC.”
as §3
FIG. 8A: CD47 and PD-L1 protein levels in cells derived from mouse MYC-driven HCC, following MYC inactivation or chemotherapy treatment, were quantified by flow cytometry MFI (n=3). FIG. 8B: CD47 and PD-L1 mRNA levels were quantified by qPCR and protein levels were quantified by flow cytometry in primary tumors from mouse MYC-driven HCC, following MYC inactivation (n=3 tumors per condition). […]

[7] abbreviates: CCRF-CEM, protein by flow cytometry MFI, conditional shRNA knockdown or 10 μM JQ1.
[8] abbreviates: human T-ALL cell lines, qPCR, 0-48 h.
Setting [9] is: Jurkat, protein by flow cytometry MFI, conditional shRNA knockdown or 10 μM JQ1.

`Cc1sc2c(c1C)C(c1ccc(Cl)cc1)=N[C@@H](CC(=O)OC(C)(C)C)c1nnc(C)n1-2` [JQ1]: the “expression of CD47” value in assay [1] (setting [7]) and in assay [2] (setting [9]) was “reduced” throughout. The “expression of PD-L1” value in assay [1] (setting [7]) and in assay [2] (setting [9]) was “reduced” in each case. Besides, the “expression of MYC mRNA” value in assay [1] (setting [8]) is “reduced”; in assay [2] (setting [8]), “reduced”; in assay [5] (primary human T-ALL cells, qPCR), “reduced”. Besides, the “expression of CD47 protein” value in assay [3] (flow cytometry MFI) and in assay [4] (flow cytometry MFI) was “reduced” in each case. In addition, the “expression of PD-L1 protein” value in assay [3] (flow cytometry MFI) and in assay [4] (flow cytometry MFI) was “reduced” in each case. In addition, the “expression of CD47 mRNA” value in assay [3] (qPCR) and in assay [4] (qPCR) was “reduced” each time. Besides, the “expression of PD-L1 mRNA” value in assay [3] (qPCR) and in assay [4] (qPCR) was “reduced” in each case. Moreover, the CD8 expression entry in assay [5] is “unaffected”. Also, in assay [5], the “CD47 cell surface expression” value is listed as “reduced”. The “PD-L1 cell surface expression” value in assay [5] is listed as “reduced”.

In the case of `N.N.[Cl][Pt][Cl]` [cisplatin], in the assay on MYC T-ALL 4188 cells, the CD3 expression result is recorded as “no effect”, the CD8 expression entry was “no effect”, the CD25 expression entry is listed as “no effect” and the CD69 expression result is “no effect”. For the same compound, in the assay with MYC T-ALL 4188 cells, the CD47 expression entry was “either unaffected or showed increased expression”, the PD-L1 expression result is given as “either unaffected or showed increased expression” and the tumor cell death result is “tumor cell death”. For the same compound, in assay [6], the “expression of CD47 protein” value is recorded as “unaffected” and the “expression of PD-L1 protein” value is given as “unaffected”. For the same compound, in assay [5], the CD8 expression result is “unaffected”, the “CD47 cell surface expression” value is “increased” and the “PD-L1 cell surface expression” value is given as “increased”.

`O=P1(N(CCCl)CCCl)NCCCO1` (stereo not drawn) [cytoxan]: in the assay on MYC T-ALL 4188 cells, the CD3 expression result is listed as “no effect”, the CD8 expression result is on record as “no effect”, the CD25 expression result is given as “no effect” and the CD69 expression entry was “no effect”. In the assay with MYC T-ALL 4188 cells, the CD47 expression entry is “either unaffected or showed increased expression”, the PD-L1 expression entry is “either unaffected or showed increased expression” and the tumor cell death entry is listed as “tumor cell death”.

Take `C[C@]12C=CC(=O)C=C1CC[C@@H]1[C@@H]2C(=O)C[C@@]2(C)[C@H]1CC[C@]2(O)C(=O)CO` [prednisone]: in the assay on MYC T-ALL 4188 cells, the CD3 expression entry is reported as “no effect”, the CD8 expression result is “no effect”, the CD25 expression result is listed as “no effect” and the CD69 expression entry is listed as “no effect”. Besides, in the assay with MYC T-ALL 4188 cells, the CD47 expression result is “either unaffected or showed increased expression”, the PD-L1 expression result is “either unaffected or showed increased expression” and the tumor cell death entry is on record as “tumor cell death”.

With `CC[C@]1(O)C[C@H]2CN(CCc3c([nH]c4ccccc34)[C@@](C(=O)OC)(c3cc4c(cc3OC)N(C=O)[C@H]3[C@@](O)(C(=O)OC)[C@H](OC(C)=O)[C@]5(CC)C=CCN6CC[C@]43[C@@H]65)C2)C1` [vincristine], in the assay on MYC T-ALL 4188 cells, the CD3 expression result was “no effect”, the CD8 expression entry is on record as “no effect”, the CD25 expression entry is reported as “no effect” and the CD69 expression entry is “no effect”. Moreover, in the assay with MYC T-ALL 4188 cells, the CD47 expression result is recorded as “either unaffected or showed increased expression”, the PD-L1 expression result was “either unaffected or showed increased expression” and the tumor cell death entry is “tumor cell death”.

The values are drawn from patent publication US20190085404A1, “METHODS OF IDENTIFYING AND TREATING IMMUNE CHECKPOINT INHIBITOR-RESPONSIVE NEOPLASMS AND CELLS, TRANSGENIC ANIMALS AND KITS FOR USE THEREIN” (The Board of Trustees of the Leland Stanford Junior …, priority 2016, published 2019).
